Results reported in patent US11320422B2, “Inhibition of protein degradation for improved production” (LONZA LTD, priority 2016, dated 2022).
Values joined by “and” are separate entries in the source; they are usually repeats but may differ in a detail not shown here. Identical values can stand only once. Where a SMILES comes first, the peptide text is derived from it. The star is where a group is joined. Cbz = O=C(OCc1ccccc1)*

How the values were obtained:
[1] = Initial assessment of inhibitor concentrations on recombinant CHO cell line growth (viable cell number, culture viability, ViCell); format: cell-based, Chinese hamster; details: Chinese hamster
Experimental: (§1) 96 deep well plates (Nunc) were seeded at 4×10^6 cells/ml at 300 μl per well for analysis of proteasome and ERAD inhibitors. Triplicate wells were prepared for each inhibitor for each of the panel of cell lines. […] 100 μl of the well volume was combined with 900 μl PBS and a cell count performed using the ViCell apparatus. The remaining 200 μl was centrifuged at 1000 rpm for 5 minutes and the supernatant and pellet stored at −20° C. prior to further analysis.
(§2) Initial assessment was performed across two experiments using one model recombinant CHO antibody producing cell line (CH0149) to determine the appropriate concentrations of each inhibitor to use for the assessment of the full panel (FIGS. 1A-1C and 2A-2F).

[2] = system: recombinant CHO antibody producing cell line (CH0149); assay: as above; format: cell-based, Chinese hamster
Experimental: as §1, §2

[3] = system: CHOK1 GS-KO cells producing antibody A; assay: Cell line construction with MSX plus proteasome inhibitor selection (Example 5), growth and antibody concentration by ELISA / Protein A HPLC; format: cell-based, Chinese hamster
Experimental: The electroporation was performed in the GSKO suspension cell line. A count was performed of the culture in mid exponential phase and the remaining culture centrifuged at 1000 rpm and the supernatant removed. 1×10^7 cells were required per electroporation cuvette in a volume of 700 μl. Therefore, the pellet was resuspended to achieve the concentration of cells for the number of electroporations required. Electroporations were performed with 20 μg linearized plasmid at 300 V, a capacitance of 900 μF and using cuvettes with a 4 mm gap. Each cuvette was added to 20 ml of fresh media with 2 ml of that volume used to rinse out the cuvette. For the cell line construction experiment, then all electroporations were pooled together to give a final volume of 300 ml. This was thoroughly mixed and then distributed in 10 ml volumes between 30×T75 tissue culture flasks. The flasks were then incubated statically at 36.5° C. with 5% CO2. 24 hours after the transfection, the glutamine synthetase inhibitor (MSX) was added to provide selection of the cells successfully taking up the plasmid and expressing the selection marker GS. 5 ml volumes of the MSX stocks with CD-CHO media were added to give either a final culture concentration of either 25, 37.5 or 50 μM MSX. The addition of the proteasome inhibitors was then performed at the appropriate time-point following MSX selection as determined by the design of experiments layout detailed in Table 3. Filter sterilized DMSO was added as a control where no drug was required in the combinations. Cultures were then incubated statically at 36.5° C. and 5% CO2 for approximately two weeks following addition of MSX. […] Once a viable cell concentration of at least 0.2×10^6 cells/ml was achieved, the cultures were moved into 20 ml shake flask cultures at 36.5° C. and 5% CO2 with shaking at 140 rpm. From this point onwards routine sub-culture was performed every 3-4 days.
AffiniPure F(ab′)2 fragment goat anti-human IgG Fc fragment specific (minimal cross-reaction to bovine, horse, mouse serum proteins) (Jackson ImmunoResearch Laboratories Inc) was diluted in coating buffer (15 mM Na2CO3 and 35 mM NaHCO3, pH 9.7) to give a concentration of […]. 100 μl of the stock was then used to coat each well of 96 well plate (Nunc). Plates were covered with foil and stored at 4° C. overnight. […] Plates were again washed and ready-made TMB substrate (Cell signalling technology #7004) was added (100 μl/well). […] The optical density of each well was then measured at 450 nm. The concentration of the supernatant samples were then determined from the standard curve of the known concentrations of IgG. […]

[4] = system: GS KO Lonza host cells expressing cB72.3 monoclonal antibody; assay: Cell line construction with MSX plus proteasome or ERAD inhibitors (Example 6), cB72.3 titre by Octet and western blot; format: cell-based, Chinese hamster; details: for monoclonal antibody titre higher than control pool: 31.25 nM MG-132 and 37.5 μM MSX, 168 h of batch culture; for cell specific productivities compared to MSX control pools: MG-132 particularly 31.25 nM, various concentrations of epoxomicin and eeyarestatin
Experimental: Multiple electroporations with 20 μg of linearized GS cB72.3 monoclonal antibody containing construct with 1×10^7 viable GS KO Lonza host cells were performed and pooled. This pool was then set up into 10 ml cultures, each containing approximately 0.25×10^6 cells and 10 μg DNA, and immediately placed in a static incubator at 37° C. with 5% CO2. Cell media consisted of commercially available CD-CHO media without glutamine and the addition of MSX and inhibitors as outlined below. 24 hours post transfection, MSX was added to the media to make the culture volume up to 15 ml and provide a final MSX concentration of 37.5 μM. The different inhibitors were then added to the pools a further 24 hours after the addition of MSX. A range of concentrations were added for each inhibitor to give the final concentrations in the flasks as described in FIG. 13. Only one inhibitor treatment was performed per flask (no combined treatments) and all were performed in combination with 37.5 μM MSX as outlined in FIG. 13.
The cell pools were then left in the static incubator at 37° C. and 5% CO2 until the viable cell concentration in the flask reached ˜0.2×10^6 cells/ml. When this viable cell number was achieved, cell pools were moved into 125 mL Erlenmeyer shake flasks and cultured in a 20 mL volume of CD-CHO including MSX and the appropriate concentration of inhibitor at 37° C. under a 5% CO2 in air environment with shaking at 140 rpm. 24 out of 33 transfections/pools were eventually moved across to shake flasks as they exceeded the required viable cell concentration described above.
Cell pools were then cultured in the presence of the appropriate inhibitor (and inhibitor concentration and 37.5 μM MSX) in 20 mL of CD-CHO for several passages (each being seeded at 0.2×10^6 viable cells/ml) before batch cultures were set up for each to assess the growth of the pool and to sample for product concentration over the duration of culture. For this purpose 20 ml batch cultures (seeded at 0.2×10^6 viable cells/ml) were sampled at 48, 96 and 168 hours for growth and titre information. The cell pools were also then passaged for an additional two passages in the absence of the inhibitors (but containing MSX) to determine if any changes in growth or productivity were observed, i.e. were the improved culture titres only maintained if the inhibitor was continually present.

GS-KO CHO host cell line = assay: Host selection/adaptation in presence of inhibitors, then transient transfection with cB72.3 (Example 8); format: cell-based, Chinese hamster
Experimental: In order to ascertain if adapted/selected host cells with the ability to produce enhanced recombinant protein yields and quality could be generated by culturing the Lonza GS-KO CHO host cell line in the presence of the protein degradation inhibitors, the GS-KO host cell line was cultured in the presence of various protein degradation inhibitors for a series of passages. The host cell line was therefore cultured in 20 ml CD-CHO+6 mM glutamine+the appropriate inhibitors as outlined below in 125 ml Erlenmeyer shake flasks at 37° C. under a 5% CO2 in air environment with shaking at 140 rpm. At each passage the new culture was seeded at 0.2×10^6 viable cells/ml. Cells were passaged when the cell number exceeded 1×10^6 viable cells per mL.
However, cells in the presence of this concentration of MG132 were subjected to 4 passages at this concentration and then a further 2 in the absence of the drug. At this time there was sufficient cells for the transfection following passage of the cells without the drug (2nd experiment of the two) to be undertaken.
Transient transfection of the emerging cell host pools described above was then performed via electroporation with 20 μg of the model cB72.3 plasmid and 1×10^7 viable cells and the cells placed in 20 ml of fresh CD-CHO media plus 6 mM glutamine in 125 ml Erlenmeyer shake flasks and cultured at 37° C. under a 5% CO2 in air environment with shaking at 140 rpm. This was undertaken for the host cell pools that had been in the presence of the inhibitors continually and those that had been passaged for an additional two passages in the absence of the inhibitors. Samples were taken from these batch cultures to monitor growth and antibody titre at 48, 96 and 168 hours post-transfection.

apoptosis = details: cited from earlier work
ER translocation = details: in vivo; cited from earlier work
[5] = immediately after treatment with inhibitors
[6] = two passages in the absence of inhibitors
[7] = host initially cultured with Eeyarestatin I or 6.25 nM Epoxomicin, then 2 passages without inhibitor

SMILES: CC(C)C[C@@H](C=O)NC(=O)[C@H](CC(C)C)NC(=O)[C@H](CC(C)C)NC(=O)OCc1ccccc1 [MG-132, Z-Leu-Leu-Leu-al] (Cbz-Leu-Leu-Leu-aldehyde)
- cytotoxicity at 48 h ([1]; 0.5 and 1 μM, 48 hours after addition, compared to control, read-out: decrease in viable cell number): ~40%
- cytotoxicity at 0.5 μM ([1]; read-out: reduction of cell concentration and culture viability compared to control): 30 to 60%
- effect on culture viability and cell numbers ([2]; 0.1 μM): less of an effect
- reduction in the culture viability to ([2]; 0.5 and 1 μM, 48 hours after addition): approximately 50%
- cell numbers and culture viability ([2]; 5 and 10 μM, 48 hours after addition): dramatically reduced
- increase in the amount of antibody in cell culture supernatant over MSX alone pools ([3]; 0.0625 μM MG-132 and 37.5 μM MSX, 192 hours of batch culture): ~4 fold
- viable cell counts following electroporation and cell line construction ([3]; concentrations used in Example 2): poor viable cell counts
- monoclonal antibody titre higher than control pool ([4]; cells continually cultured with inhibitor): ~4 fold
- monoclonal antibody titre higher than control pool ([4]; two passages in the absence of inhibitor): ~4 fold
- final inhibitor concentrations that resulted in the emergence of cell pools ([4]; alongside 37.5 μM MSX): 15.625 nM and 31.25 nM
- cell specific productivities compared to MSX control pools [4, 5]: enhanced
- cell specific productivities compared to MSX control pools [4, 6]: enhanced
- host cell growth in presence of inhibitor (GS-KO CHO host cell line; 125 nM, transfection immediately after culture with drug): not sufficient cells
- concentration shown to induce apoptosis (apoptosis): 1.5 µM

SMILES: CC1(C)C(N(O)C(=O)Nc2ccc(Cl)cc2)N(c2ccc(Cl)cc2)C(=O)N1CC(=O)N/N=C/C=C/c1ccc([N+](=O)[O-])o1 (stereo not shown) [eeyarestatin I]
- decrease in viable cell number ([2]; 1 μM, 48 hours after addition, two experiments): 15-30%
- effect on the culture viability parameters ([2]; 10 μM, two experiments): consistently showed an effect
- cell specific productivities compared to MSX control pools [4, 5]: enhanced
- cell specific productivities compared to MSX control pools [4, 6]: enhanced
- cell specific productivity and titre (GS-KO CHO host cell line; 0.1 μM in culture media for selection/adaptation of host): increase in cell specific productivity and titre
- transient antibody titres versus DMSO control cells (GS-KO CHO host cell line; host cultured with 0.1 μM Eeyarestatin I before transfection): higher transient titres
- transient antibody titres versus DMSO control cells (GS-KO CHO host cell line; [7]): higher transient titres
- concentration sufficient to block ER translocation (ER translocation): 8 µM

SMILES: CC[C@H](C)[C@H](NC(=O)[C@H]([C@@H](C)CC)N(C)C(C)=O)C(=O)N[C@H](C(=O)N[C@@H](CC(C)C)C(=O)[C@@]1(C)CO1)[C@@H](C)O [epoxomicin]
- decrease in viable cell numbers ([2]; 0.05 μM, 48 hours after addition, two experiments): 30-50%
- detrimental effects over time ([2]; 0.01, 0.005 and 0.001 μM): not showing any detrimental effects until 72 hours
- viable cell number ([2]; 0.01, 0.005 and 0.001 μM): increase in viable cell number
- decrease in viable cell number ([2]; 0.5 and 1 μM, 48 hours after addition, compared to control): 90%
- increase in antibody concentration over control pools generated with MSX alone ([3]; 0.025 μM epoxomicin and 37.5 μM MSX, 192 hours of batch culture): 3-7 fold
- maximum viable cell number ([3]; pool CLC18 constructed with 0.025 μM epoxomicin and 37.5 μM MSX, batch culture without inhibitor): 5.328×10^6 cells/ml
- cell specific productivities compared to MSX control pools [4, 5]: enhanced
- cell specific productivities compared to MSX control pools [4, 6]: enhanced
- transient antibody titres versus DMSO control cells (GS-KO CHO host cell line; [7]): higher transient titres
